Reference: patent publication US9138659B2, “Compositions, methods, and systems relating to controlled crystallization and/or nucleation of molecular species” (Massachusetts Institute of Technology, priority 2010, dated 2015)
Converted amounts (≈) assume the structure as drawn.

Key:
Type in all cases: physicochemical
[1] = Solubility of ASA and ACM
[2] = Nucleation induction time of aspirin on nanopatterned AA-co-DVB polymer films from butyl acetate; conditions: for Nucleation induction time τ: aspirin, butyl acetate
Source text: The effect of nanopatterned polymer films on the kinetics of nucleation from solution was quantified by measuring the nucleation induction time of aspirin, a representative small organic molecule. The polymer film was made from acrylic acid crosslinked with divinylbenzene (AA-co-DVB), with which aspirin could interact via hydrogen bonding. Polymer crosslinking was designed to avoid solvent uptake and to maintain the surface morphology when in contact with the solution. Due to the stochastic nature of nucleation events, 20 to 50 samples were tested simultaneously to obtain the probability distribution for the nucleation induction time. The average induction time, τ, was determined from a statistical analysis on the induction time data assuming that nucleation follows a Poisson distribution, P(t)=exp(−t/τ). The nucleation rate, J, was calculated from τ via J=1/τV, where V is the volume of solution, with the assumption that the time scale of nucleation is much longer than that of crystal growth, valid for this system.
In FIG. 14: Effect of the nanopore shape in AA-co-DVB polymer films on the nucleation kinetics of aspirin: flat vs. spherical pores (left); spherical pores vs. hexagonal pores and square pores of the same size (right). J is the nucleation rate, in number of nuclei per ml of solution per hour, calculated from the average nucleation induction time τ by J=1/τV, where V is the volume of solution. The standard errors of J were calculated from the regression on the induction time probability distribution following the Poisson distribution.
Nucleation Induction Time Measurement: Once synthesized, the polymer film with its substrate was inserted vertically into a 1 ml glass shell vial containing 200 μl 47 mg/ml aspirin solution in butyl acetate. For each polymer sample, 20-50 vials were assembled and immersed in a circulator stabilized at 50±0.1° C. to dissolve any pre-existing crystals, and then the solution was quench cooled to 5±0.1° C. by immersing into a second circulator. The number of vials in which crystallization occurred was recorded as a function of time. All the operations involving exposing polymer films, aspirin solutions and shell vials to the atmosphere were conducted inside a Bio Safety Cabinet to reduce impurity contamination to the lowest level. Efforts were made to clean all components before usage and aspirin solutions were filtered with an Acrodisc 0.2 μm PTFE syringe filter.

[3] = Nucleation induction time of ASA / ACM with PEGDA or PEGDA-co-AM microgels in 38/62 ethanol/water; conditions: for Average nucleation induction time τ (stretched exponential fit): ASA S=2.1; for τ1 (two-exponential fit) / τ2 (two-exponential fit): ASA; for optimum mesh size for inducing ASA nucleation: PEGDA particles
Source text: Nucleation kinetics of model compounds was investigated by measuring the nucleation induction time probability distribution. Nucleation induction time is generally time elapsed prior to the formation of a detectable amount of the new crystalline phase. It is a useful indicator of the surface nucleation activity because it can be dramatically shortened when the presence of an interface lowers the free energy barrier of nucleation. Due to the stochastic nature of nucleation events, a large number of experiments were performed to obtain the probability distribution of nucleation induction time. To obtain the average induction time τ, statistical analysis on the induction time data was conducted based on the understanding that nucleation follows a Poisson distribution. According to Poisson statistics, the probability for a nucleation event to occur beyond time t is P=exp(−t/τ), which implies that the fraction of vials without nucleation at time t exponentially decays as a function of time, where the scaling factor for time is the average induction time.
For determining the statistical analysis of aspirin nucleation induction time with PEGDA particles of various mesh sizes (particles denoted by Mn), 1.9 mL of 38 mg/ml ASA solution in 38/62 ethanol/water (v/v) with 15 μg/mL PEGDA particles was cooled at a rate of 5° C./min from 35° C. to 15° C. to achieve a supersaturation of 2.1. The solution was stirred at 700 rpm. The onset of nucleation was detected by an IR probe which measures the transmission signal through the solution. A total of 10 vials were cycled for 5-10 times to yield 50-100 nucleation induction time measurements for the statistical analysis.
The nucleation rate, J, is given by J=1/τV, where τ the average induction time (Table 1) and V the volume of solution. For this equation to be valid, the assumption is that the crystal growth rate is much faster than the nucleation rate, which is the case for ASA. […] Other crystallization conditions were kept the same.
[…] The solution was stirred at 700 rpm. The onset of nucleation was detected by an IR probe which measures the transmission signal through the solution. A total of 10 vials were cycled for 5-10 times to yield 50-100 nucleation induction time data for the statistical analysis.
Effect of polymer gels on nucleation induction time statistics: To evaluate the impact of polymer-solute interactions on nucleation kinetics, induction times of ASA and ACM were measured with microgels of a series average mesh sizes before and after chemical modification suspended in respective supersaturated solutions. […] For each system, a large number of experiments (50-100) were conducted to obtain the induction time probability distribution. The nucleation induction time generally follows the Poisson distribution. However, deviations can occur, as observed in this study, when there is more than one type of nucleation sites in a sample, giving rise to multiple Poisson processes with different characteristic time scales.
For samples with PEGMDA microgels, the nucleation induction time distributions reported in previous work can be faithfully described by stretched exponentials (Tables 5 and 6), P=exp[−(t/τ)^β], where P is the probability to observe no crystallization event within time t, τ the average induction time. The stretched exponential exponent β served as a measure for the spread of time scales characterizing the nucleation process, or the distribution of kinetic barriers arisen from the heterogeneity of the system. Such heterogeneity can be attributed to the heterogeneity of the polymer microstructure identified using SANS, which resulted from a distribution of nucleation sites arising from spatial variations in both the mesh size and chemical composition of the hydrogel at nanometer length scales. Note that β varies with the average mesh size of the microgel. […]

[4] = Isothermal titration calorimetry of ASA adsorption onto microgels; conditions: 38/62 ethanol/water, 23° C
Experimental: The ASA-polymer interactions were further quantified with the solute adsorption enthalpy via Isothermal Titration calorimetry (ITC), which also helps to deepen the understanding of partitioning effect. […] The data are presented both as instantaneous enthalpies at a given concentration, ΔHASA-gel (top), and as cumulative enthalpies up to a certain concentration, ΔHASA-gel ^tot (bottom).
Isothermal titration calorimetry (ITC): ITC measurements were performed on a TA Instruments NanoITC calorimeter. All experiments were performed at 23° C. using injections of ΔV=10 μL of titrant, with a waiting time of 1000 sec in between injections and 25 injections per measurement. For all measurements, The differential heat input, q(t), was measured as a function of time t over all injections, followed by integration of q(t) over each individual injection to obtain the molar heat of injection, Q(T,P,c). The molar heat of injection can then be cumulatively added over all previous injections, yielding the total molar heat, Qtot(T,P,c). […]
where ΔHASA-gel is the molar enthalpy of interaction between ASA and the microgel particles, and ΔHdil^i is the molar enthalpy of dilution of component i (ASA or gel, respectively) in 38/62 (v/v) ethanol/water. […] (X) was used to subtract the measured dilution enthalpies from the initial measurements of Q(T,P,c) in order to obtain ΔHASA-gel. […]

[5] = PEGDA-co-AM microgels M 130 g/mol
[6] = PEGDA-co-AM microgels M 200 g/mol
[7] = PEGDA-co-AM microgels M 400 g/mol
[8] = PEGDA-co-AM microgels M 575 g/mol
[9] = PEGDA-co-AM microgels M 700 g/mol

CC(=O)Oc1ccccc1C(=O)O [aspirin]
solubility ([1]; aqueous with cosolvent or surfactant or cyclodextrin, 38/62 (v/v) ethanol/water mixture at 25° C): 32 mg/mL (≈ 178 mM)
solubility in water ([1]; water at 3° C): essentially insoluble
enhancement of aspirin nucleation rate relative to spherical pores ([2]; AA-co-DVB film with hexagonal pores): more than an order of magnitude
enhancement of aspirin nucleation rate relative to spherical pores ([2]; AA-co-DVB film with square pores): three-fold
Nucleation induction time τ ([2]; AA-co-DVB film with hexagonal nanopores, 15 nm): 26 ± 7 min
Nucleation induction time τ ([2]; AA-co-DVB film with square nanopores, 125 nm): 138 ± 12 min
average nucleation induction time τ ([3]; ASA S = 2.1, Bulk (no particles), 38/62 ethanol/water): ∞
average nucleation induction time τ ([3]; ASA S = 2.1, PEGDA microparticles Mn 130 g/mol, 38/62 ethanol/water): ∞
average nucleation induction time τ ([3]; ASA S = 2.1, PEGDA microparticles Mn 200 g/mol, 38/62 ethanol/water): 910 ± 40 min
average nucleation induction time τ ([3]; ASA S = 2.1, PEGDA microparticles Mn 400 g/mol, 38/62 ethanol/water): 60 min
average nucleation induction time τ ([3]; ASA S = 2.1, PEGDA microparticles Mn 400 g/mol, 38/62 ethanol/water, listed as ASA): 63 ± 3 min
average nucleation induction time τ ([3]; ASA S = 2.1, PEGDA microparticles Mn 575 g/mol, 38/62 ethanol/water): 1900 ± 100 min
average nucleation induction time τ ([3]; ASA S = 2.1, PEGDA microparticles Mn 700 g/mol, 38/62 ethanol/water): 6600 ± 1100 min
average nucleation induction time τ ([3]; ASA S = 3.3, Bulk (no particles), 38/62 ethanol/water): 2500 ± 600 min
average nucleation induction time τ ([3]; ASA S = 3.3, PEGDA microparticles Mn 130 g/mol): 330 ± 60 min
average nucleation induction time τ ([3]; ASA S = 3.3, PEGDA microparticles Mn 200 g/mol): 52 ± 3 min
average nucleation induction time τ ([3]; ASA S = 3.3, PEGDA microparticles Mn 400 g/mol): 123 ± 7 min
average nucleation induction time τ ([3]; ASA S = 3.3, PEGDA microparticles Mn 700 g/mol): 240 ± 20 min
Average nucleation induction time τ (stretched exponential fit) ([3]; Bulk / PEGDA microgels M 130 g/mol): Not detectable
Average nucleation induction time τ (stretched exponential fit) ([3]; PEGDA microgels M 200 g/mol): 1052 min
Average nucleation induction time τ (stretched exponential fit) ([3]; PEGDA microgels M 400 g/mol): 66.7 min
Average nucleation induction time τ (stretched exponential fit) ([3]; PEGDA microgels M 575 g/mol): 3500 min
Average nucleation induction time τ (stretched exponential fit) ([3]; PEGDA microgels M 700 g/mol): 210000 min
τ1 (two-exponential fit) [3, 5]: 170 min
τ2 (two-exponential fit) [3, 5]: 4900 min
τ1 (two-exponential fit) [3, 6]: 21 min
τ2 (two-exponential fit) [3, 6]: 99 min
τ1 (two-exponential fit) [3, 7]: 39 min
τ2 (two-exponential fit) [3, 7]: 400 min
τ1 (two-exponential fit) [3, 8]: 51 min
τ2 (two-exponential fit) [3, 8]: 470 min
τ1 (two-exponential fit) [3, 9]: 33 min
τ2 (two-exponential fit) [3, 9]: 720 min
optimum mesh size for inducing ASA nucleation ([3]; 8° C, higher supersaturation (3.4)): 10 Å
optimum mesh size for inducing ASA nucleation ([3]; 15° C, supersaturation 2.1): approximately 15 Å
promotion of nucleation kinetics when AM co-monomer was introduced into the PEGDA matrix ([3]; PEGDA-co-AM vs PEGDA microgels): up to four orders of magnitude
best enhancement in nucleation kinetics by addition of PEGDA particles ([3]; vs bulk, Table 2): many orders of magnitudes
enthalpy of adsorption of ASA at infinite dilution ΔHASA-gel^∞ ([4]; PEG400DA microgels): -9.8 kcal/mol
enthalpy of adsorption of ASA at infinite dilution ΔHASA-gel^∞ ([4]; PEG400DA-co-AM microgels): -12.3 kcal/mol
